Test results from patent publication US20070072810A1, “Agent for treating diabetes” (Takeda Pharmaceutical Company, Limited, priority 2003, published 2007).

Experiments:
[1] = test system: N-STZ-1.5 rat (type 2 diabetes model); test: Oral glucose loading in N-STZ-1.5 rats after 4 weeks of methylcellulose (Group M) or glibenclamide (Group G) (Experimental Example 2); assay type: in vivo; conditions: for Increment of plasma insulin level / Increment of plasma glucose level: oral glibenclamide 10 mg/kg, mean, n=6; for Increment of plasma insulin level: 10 minutes after oral glucose 1 g/kg (from 0 to 60 minutes after sugar loading); for Increment of plasma glucose level: 60 minutes after oral glucose 1 g/kg; for plasma glucose level-lowering effect (in words): summary of Table 4; for plasma insulin level-elevating effect (in words): summary of Table 5
Method: (§1) Streptozocin (STZ) (120 mg/kg bodyweight) was administered to a 1.5-day-old male WKY rat to obtain a type 2 diabetes model, N-STZ-1.5 rat.
N-STZ-1.5 rats (male, 24 animals) prepared in Experimental Example 1 were divided into 4 groups (6 animals each), of which 2 groups (hereinafter sometimes referred to as Group M) and the remaining 2 groups (hereinafter sometimes referred to as Group G) received orally a 0.5% methylcellulose suspension and glibenclamide (10 mg/kg bodyweight) respectively, for 4 weeks. After repeated administration for 4 weeks, one Group M and one Group G (control groups) received orally a 0.5% methylcellulose suspension and the other Group M and the other Group G received orally glibenclamide (10 mg/kg bodyweight).
Then, each rat received orally 1 g/kg bodyweight of glucose solution. Before administration of glucose solution and 10 and 60 minutes after the administration, blood samples were taken from the caudal vein of the rat and then the plasma glucose level and the plasma insulin level were determined.
The plasma glucose level and the plasma insulin level were determined in the same manner as in Experimental Example 1.
The increment of plasma glucose level 60 minutes after administration of glucose solution (from 0 to 60 minutes after sugar loading) and the increment of plasma insulin level 10 minutes after administration of glucose solution (from 0 to 60 minutes after sugar loading) are shown in Table 4 and Table 5, respectively. The values in the tables are mean values (n=6).

[2] = test system: N-STZ-1.5 rat (model of type 2 diabetes with sulfonylurea secondary failure); test: Oral glucose loading in N-STZ-1.5 rats with sulfonylurea secondary failure (Experimental Example 1); assay type: in vivo; conditions: for Increment of plasma insulin level: rats pretreated with glibenclamide for 4 weeks; for plasma glucose level-lowering effect (in words) / plasma insulin level-elevating effect (in words): type 2 diabetic rat with sulfonylurea secondary failure; for plasma glucose level-lowering effect (in words): summary of Table 1; for plasma insulin level-elevating effect (in words): summary of Table 2 and Table 3
Method: as §1
N-STZ-1.5 rats (male, 24 animals) received orally glibenclamide (10 mg/kg bodyweight/day) for 4 weeks to become a model of type 2 diabetes with sulfonylurea secondary failure. Then, the rats were divided into 4 groups of Groups A to D (6 animals each).
Then, each rat received orally 1 g/kg bodyweight of glucose solution. Before administration of glucose (before and after administration of the test compound) and 10 and 60 minutes after administration of glucose solution, blood samples were taken from the caudal vein of the rat and then the plasma glucose level and the plasma insulin level were determined.
The plasma glucose level was determined by an enzymatic method using L type WakoGlu2 (trade name, Wako Pure Chemical Industries, Ltd.), and the plasma insulin level was determined by radioimmunoassay using Shionoria Insulin Kit (trade name, Shionogi & Co., Ltd.).
The increment of plasma glucose level 60 minutes after administration of glucose solution (from 0 to 60 minutes after sugar loading); the increment of plasma insulin level 10 minutes after administration of glucose solution (from before administration of the test compound to 10 minutes after sugar loading); and the increment of plasma insulin level 10 minutes after administration of glucose solution (from 0 to 60 minutes after sugar loading) are shown in Table 1, Table 2 and Table 3, respectively. The values in the tables are mean values (n=6).

[3] = Group G (glibenclamide 10 mg/kg for 4 weeks)
[4] = Group M (0.5% methylcellulose for 4 weeks)
[5] = 10 minutes after oral glucose 1 g/kg (from before administration of the test compound to 10 min after sugar loading), oral glibenclamide 10 mg/kg, nateglinide 50 mg/kg, Compound A 3 mg/kg, mean, n=6

COc1ccc(Cl)cc1C(=O)NCCc1ccc(S(=O)(=O)NC(=O)NC2CCCCC2)cc1 [glibenclamide]
Increment of plasma insulin level [1, 3]: 22.76 μU/ml
Increment of plasma glucose level [1, 3]: 180.65 mg/dL
plasma glucose level-lowering effect (in words) ([1]; Group G): the effect was not shown
plasma insulin level-elevating effect (in words) ([1]; Group G): the effect was not shown
Increment of plasma insulin level [1, 4]: 49.70 μU/ml
Increment of plasma glucose level [1, 4]: 51.72 mg/dL
plasma glucose level-lowering effect (in words) ([1]; Group M): showed plasma glucose level-lowering effect
plasma insulin level-elevating effect (in words) ([1]; Group M): showed plasma insulin level-elevating effect
Increment of plasma insulin level [2, 5]: 18.03 μU/ml
plasma glucose level-lowering effect (in words) [2]: no plasma glucose level-lowering effect
plasma insulin level-elevating effect (in words) [2]: hardly plasma insulin level-elevating effect

CC(C)[C@H]1CC[C@H](C(=O)N[C@H](Cc2ccccc2)C(=O)O)CC1 [nateglinide]
Increment of plasma insulin level ([2]; 10 minutes after oral glucose 1 g/kg (from 0 to 60 minutes after sugar loading), oral glibenclamide 10 mg/kg, nateglinide 50 mg/kg, Compound A 3 mg/kg, mean, n=6): 16.78 μU/ml
Increment of plasma insulin level [2, 5]: 18.76 μU/ml
Increment of plasma glucose level ([2]; 60 minutes after oral glucose 1 g/kg (0 to 60 min after sugar loading), rats pretreated with glibenclamide 10 mg/kg/day for 4 weeks, oral glibenclamide 10 mg/kg, nateglinide 50 mg/kg, Compound A 3 mg/kg, mean, n=6): 185.95 mg/dL
plasma glucose level-lowering effect (in words) [2]: no plasma glucose level-lowering effect
plasma insulin level-elevating effect (in words) [2]: hardly plasma insulin level-elevating effect
